In patent US4415574A, “Soluble N2 substituted derivatives of 2,4-diamino 5-benzyl pyrimidine, process for their preparation and medicaments containing them” (S. A. Panmedica, priority 1981, dated 1983):
Where two headings read alike, the source gives them in different places.

Experiments:
[1] = system: COLI; assay: Inhibiting minimum concentration (I.M.C.), activity relative to trimethoprime, OXOIDE COLI MEDIUM 4; assay type: cell-based; settings: for % activity with respect to the base: ratio of I.M.C. to trimethoprime; for % activity with respect to the base corrected by molecular weight: ratio to trimethoprime
Procedure: (§1) The antibacterial activity of the derivatives according to the invention were tested in vitro by determining the inhibiting minimum concentrations (I.M.C.) on different germs.

[2] = system: COLI; assay: Inhibiting minimum concentration (I.M.C.), activity relative to trimethoprime, MULLER HINTON COLI MEDIUM 4; assay type: cell-based; settings: for % activity with respect to the base: ratio of I.M.C. to trimethoprime; for % activity to the base corrected by molecular weight: ratio to trimethoprime
Procedure: as §1

[3] = system: BACIL PUMILUS; assay: Inhibiting minimum concentration (I.M.C.), activity relative to trimethoprime, MULLER HINTON BACIL PUMILUS MEDIUM; assay type: cell-based; settings: for % activity with respect to the base: ratio of I.M.C. to trimethoprime; for % activity with respect to the base corrected by molecular weight: ratio to trimethoprime
Procedure: as §1

[4] = in vivo; settings: mouse

| SMILES | % activity with respect to the base [1] [%] | % activity with respect to the base corrected by molecular weight [1] [%] | % activity with respect to the base [2] [%] | % activity to the base corrected by molecular weight [2] [%] | % activity with respect to the base [3] [%] | % activity with respect to the base corrected by molecular weight [3] [%] | LD50 ([4]; iv, read-out: LD 50 I.V.) [mg/kg] | LD50 ([4]; po, read-out: LD 50 by mouth) [mg/kg] |
| --- | --- | --- | --- | --- | --- | --- | --- | --- |
| COc1cc(Cc2cnc(NC(c3ccccc3)S(=O)(=O)O)nc2N)cc(OC)c1OC (centres unmarked) [Example 8, N2 Phenyl Methane Sulfonic Acid of 2,4-Diamino 5-(3,4,5-Trimethoxy Benzyl) Pyrimidine] | 13.3 | 21 | 10.2 | 16.4 | 18.4 | 26 |  |  |
| COc1cc(Cc2cnc(NC(c3ccccc3Cl)S(=O)(=O)O)nc2N)cc(OC)c1OC (centres unmarked) [Example 9, N2 (2-Chloro Phenyl) Methane Sulfonic Acid of 2,4-Diamino 5-(3,4,5-Trimethoxy Benzyl) Pyrimidine] | 14.7 | 26 | 13.3 | 23 | 14.1 | 25 |  |  |
| COc1cc(Cc2cnc(NC(c3cccc(Cl)c3)S(=O)(=O)O)nc2N)cc(OC)c1OC (centres unmarked) [Example 10, N2 (3-Chloro Phenyl) Methane Sulfonic Acid of 2,4-Diamino 5-(3,4,5-Trimethoxy Benzyl) Pyrimidine] | 14.1 | 25 | 11.6 | 20 | 10.4 | 18 |  |  |
| COc1cc(Cc2cnc(NC(c3ccc(Cl)cc3)S(=O)(=O)O)nc2N)cc(OC)c1OC (centres unmarked) [Example 11, N2 (4-Chloro Phenyl) Methane Sulfonic Acid of 2,4-Diamino 5-(3,4,5-Trimethoxy Benzyl) Pyrimidine] | 25.6 | 45 | 17.6 | 31 | 23 | 41 |  |  |
| COc1cc(Cc2cnc(NC(c3ccc([N+](=O)[O-])cc3)S(=O)(=O)O)nc2N)cc(OC)c1OC (centres unmarked) [Example 12, N2 (4-Nitro Phenyl) Methane Sulfonic Acid of 2,4-Diamino 5-(3,4,5-Trimethoxy Benzyl) Pyrimidine] | 11.7 | 21 | 18.1 | 32 | 11.9 | 22 |  |  |
| COc1cc(Cc2cnc(NC(c3cccc([N+](=O)[O-])c3)S(=O)(=O)O)nc2N)cc(OC)c1OC (centres unmarked) [Example 13, N2 (3-Nitro Phenyl) Methane Sulfonic Acid of 2,4-Diamino 5-(3,4,5-Trimethoxy Benzyl) Pyrimidine] | 32.5 | 59 | 17.2 | 31 | 23.2 | 42 |  |  |
| COc1cc(Cc2cnc(NC(c3ccccc3[N+](=O)[O-])S(=O)(=O)O)nc2N)cc(OC)c1OC (centres unmarked) [Example 14, N2 (2-Nitro Phenyl) Methane Sulfonic Acid of 2,4-Diamino 5-(3,4,5-Trimethoxy Benzyl) Pyrimidine] | 10.6 | 19 | 13.9 | 25 | 11.0 | 20 |  |  |
| COc1ccccc1C(Nc1ncc(Cc2cc(OC)c(OC)c(OC)c2)c(N)n1)S(=O)(=O)O (centres unmarked) [Example 15, N2 (2-Methoxy Phenyl) Methane Sulfonic Acid of 2,4-Diamino 5-(3,4,5-Trimethoxy Benzyl) Pyrimidine] | 64 | 107 | 47 | 73 | 60 | 106 | 1000 | > 12000 |
| COc1cccc(C(Nc2ncc(Cc3cc(OC)c(OC)c(OC)c3)c(N)n2)S(=O)(=O)O)c1 (centres unmarked) [Example 16, N2 (3-Methoxy Phenyl) Methane Sulfonic Acid 2,4-Diamino 5-(3,4,5-Trimethoxy Benzyl) Pyrimidine] | 13.2 | 23 | 16.8 | 29 | 10.7 | 19 |  |  |
| COc1cc(Cc2cnc(NC(c3cc(OC)c(OC)c(OC)c3)S(=O)(=O)O)nc2N)cc(OC)c1OC (centres unmarked) [Example 17, N2 (3,4,5-Trimethoxy Phenyl) Methane Sulfonic Acid 2,4-Diamino 5-(3,4,5-Trimethoxy Benzyl) Pyrimidine] | 34.8 | 68 | 24.3 | 48 | 42.7 | 84 |  |  |
| COc1cc(Cc2cnc(NC(c3cccs3)S(=O)(=O)O)nc2N)cc(OC)c1OC (centres unmarked) [Example 20, N2 (2-Thienyl) Methane Sulfonic Acid of 2,4-Diamino 5-(3,4,5-Trimethoxy Benzyl) Pyrimidine] | 62.6 | 105 | 73.5 | 123 | 83.4 | 140 |  |  |
| COc1cc(C(Nc2ncc(Cc3cc(OC)c(OC)c(OC)c3)c(N)n2)S(=O)(=O)O)ccc1O (centres unmarked) [Example 21, N2 (4-Hydroxy 3-Methoxy) Phenyl Methane Sulfonic Acid of 2,4-Diamino 5-(3,4,5-Trimethoxy Benzyl) Pyrimidine] | 49.8 | 90 | 43.3 | 79 | 34.6 | 63 |  |  |
| CCOc1cc(C(Nc2ncc(Cc3cc(OC)c(OC)c(OC)c3)c(N)n2)S(=O)(=O)O)ccc1O (centres unmarked) [Example 24b, N2 (3-Ethoxy 4-Hydroxy) Phenyl Methane Sulfonic Acid of 5-(3,4,5-Trimethoxy Benzyl) 2,4-Diamino Pyrimidine] | 48.7 | 93 | 43.9 | 84 | 42.2 | 79 |  |  |
| CCOc1cc(C(Nc2ncc(Cc3cc(OC)c(OC)c(OC)c3)c(N)n2)S(=O)(=O)O)ccc1O (centres unmarked) [Example 24d, N2 (3-Ethoxy 4-Hydroxy) Phenyl Methane Sulfonic Acid of 5-(3,4,5-Trimethoxy Benzyl) 2,4-Diamino Pyrimidine] | 13.1 | 26 | 23.2 | 46 | 37.0 | 74 |  |  |
| CCOc1cc(C(Nc2ncc(Cc3cc(OC)c(OC)c(OC)c3)c(N)n2)S(=O)(=O)O)ccc1O (centres unmarked) [Example 24e, N2 (3-Ethoxy 4-Hydroxy) Phenyl Methane Sulfonic Acid of 5-(3,4,5-Trimethoxy Benzyl) 2,4-Diamino Pyrimidine] | 21.3 | 46 | 40.0 | 86 | 40.0 | 86 |  |  |
| COc1cc(Cc2cnc(NC(c3ccccc3O)S(=O)(=O)O)nc2N)cc(OC)c1OC (centres unmarked) [Example 25d, N2 (2-HYDROXY) PHENYL METHANE SULFONIC ACID OF 5-(3,4,5-TRIMETHOXY BENZYL) 2,4-DIAMINO PYRIMIDINE] | 28.3 | 53 | 45.4 | 85 | 55.5 | 104 |  |  |
| COc1cc(Cc2cnc(NC(c3ccccc3O)S(=O)(=O)O)nc2N)cc(OC)c1OC (centres unmarked) [Example 25e, N2 (2-HYDROXY) PHENYL METHANE SULFONIC ACID OF 5-(3,4,5-TRIMETHOXY BENZYL) 2,4-DIAMINO PYRIMIDINE] | 36.6 | 74 | 45.8 | 93 | 75.8 | 154 |  |  |
| COc1cc(Cc2cnc(NC(c3ccccc3O)S(=O)(=O)O)nc2N)cc(OC)c1OC (centres unmarked) [Example 25f, N2 (2-HYDROXY) PHENYL METHANE SULFONIC ACID OF 5-(3,4,5-TRIMETHOXY BENZYL) 2,4-DIAMINO PYRIMIDINE] | 38.3 | 84 | 55.4 | 120 | 73.1 | 159 |  |  |
